This note sets out measurements from patent publication US8815934B2, “2-Phenyl-1-[4-(2-Aminoethoxy)-Benzyl]-Indole and estrogen formulations” (Wyeth LLC, priority 1998, dated 2014).

The test system of assay [1] is Immature Sprague-Dawley rats. In words: Rat uterotrophic/antiuterotrophic bioassay. The class given is in vivo. The note with it: immature female rats, daily ip; for Uterine wt mg 100 uG cmpd + 1uG 17β-estradiol: 100 uG compound + 1 uG 17β-estradiol; for Uterine wt mg 100 uG cmpd: 100 uG compound, wet weight. The procedure:
The estrogenic and antiestrogenic properties of the compounds were determined in an immature rat uterotrophic assay (4 day) that (as described previously by L. J. Black and R. L. Goode, Life Sciences, 26, 1453 (1980)). Immature Sprague-Dawley rats (female, 18 days old) were tested in groups of six. […] On day 4 the animals were sacrificed by CO2 asphyxiation and their uteri were removed and stripped of excess lipid, any fluid removed and the wet weight determined. A small section of one horn was submitted for histology and the remainder used to isolate total RNA in order to evaluate complement component 3 gene expression.

In a further assay the target is estrogen receptor (Homo sapiens (Human), UniProt P03372). In words: 2×VIT ERE infection luciferase assay. The note with it: for Infection Luciferase Activity, 1 uM + 17β estradiol: 1 uM compound + 1 nM 17β-estradiol (estrogen antagonism); for Infection Luciferase Activity, 1 uM: 1 uM compound alone, percentage of activity as compared to 17β-estradiol. Format: cell-based. Here is the method:
Chinese Hamster Ovary cells (CHO) which had been stably transfected with the human estrogen receptor were maintained in DMEM+10% fetal bovine serum (FBS). 48 h prior to treatment the growth medium was replaced with DMEM lacking phenol red+10% dextran coated charcoal stripped FBS (treatment medium). Cells were plated at a density of 5000 cells/well in 96-well plates containing 200 μL of medium/well.
Reporter DNA (Promega plasmid pGL2 containing two tandem copies of the vitellogenin ERE in front of the minimal thymidine kinase promoter driving the luciferase gene) was combined with the B-galactosidase expression plasmid pCH110 (Pharmacia) and carrier DNA (pTZ18U) in the following ratio:
20 uL of this mixture was added to each well of cells and remained on the cells for 16 h. […] Each treatment condition was performed on 8 wells (n=8) which were incubated for 24 h prior to the luciferase assay.
After removing the PBS, 25 uL of Promega lysis buffer was added to each well and allowed to stand at room temperature for 15 min, followed by 15 min at −80° C. and 15 min at 37° C. 20 uL of lysate was transferred to an opaque 96 well plate for luciferase activity evaluation and the remaining lysate (5 uL) was used for the B-galactosidase activity evaluation (normalize transfection). The luciferan substrate (Promega) was added in 100 uL aliquots to each well automatically by the luminometer and the light produced (relative light units) was read 10 seconds after addition.
To the remaining 5 uL of lysate 45 uL of PBS was added. Then 50 uL of Promega B-galactosidase 2× assay buffer was added, mixed well and incubated at 37° C. for 1 hour. A plate containing a standard curve (0.1 to 1.5 milliunits in triplicate) was set up for each experimental run. The plates were analyzed on a Molecular Devices spectrophotometric plate reader at 410 nm. The optical densities for the unknown were converted to milliunits of activity by mathematical extrapolation from the standard curve.
The luciferase data was generated as relative light units (RLUs) accumulated during a 10 second measurement and automatically transferred to a JMP (SAS Inc) file where background RLUs were subtracted. The B-galactosidase values were automatically imported into the file and these values were divided into the RLUs to normalize the data. The mean and standard deviations were determined from a n=8 for each treatment. […] These techniques are described by Tzukerman, M. T., Esty, A., Santiso-Mere, D., Danielian, P., Parker, M. G., Stein, R. B., Pike, J. W. and McDonnel, D. P. (1994). Human estrogen receptor transactivational capacity was determined by both cellular and promoter context and mediated by two functionally distinct intramolecular regions (see Molecular Endocrinology, 8:21-30).

Sequence of estrogen receptor (P03372 whole entry): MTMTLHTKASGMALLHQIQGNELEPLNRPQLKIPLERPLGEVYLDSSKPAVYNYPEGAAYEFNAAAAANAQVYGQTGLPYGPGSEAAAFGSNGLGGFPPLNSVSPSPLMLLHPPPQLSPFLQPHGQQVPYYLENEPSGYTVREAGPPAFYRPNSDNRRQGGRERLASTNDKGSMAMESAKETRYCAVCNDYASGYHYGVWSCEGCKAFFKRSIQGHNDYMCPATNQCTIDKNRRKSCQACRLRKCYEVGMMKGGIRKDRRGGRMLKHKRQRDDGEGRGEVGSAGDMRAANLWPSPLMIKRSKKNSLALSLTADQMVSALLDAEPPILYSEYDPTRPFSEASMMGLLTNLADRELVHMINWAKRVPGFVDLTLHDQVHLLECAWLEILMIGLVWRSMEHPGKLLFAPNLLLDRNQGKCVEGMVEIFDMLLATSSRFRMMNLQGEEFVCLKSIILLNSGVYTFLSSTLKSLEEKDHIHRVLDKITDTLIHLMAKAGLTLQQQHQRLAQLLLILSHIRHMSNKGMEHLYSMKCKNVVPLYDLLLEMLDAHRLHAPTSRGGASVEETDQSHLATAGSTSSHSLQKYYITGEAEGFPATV

Consider `CCN(CC)CCOc1ccc(Cn2c(-c3ccc(O)cc3)c(C)c3cc(O)ccc32)cc1` [No. 101, 2-(4-Hydroxy-phenyl)-3-methyl-1-[4-(2-diethyl-1-yl-ethoxy)-benzyl]-1H-indol-5-ol], for which, in assay [1], the “Uterine wt mg 100 uG cmpd + 1uG 17β-estradiol” value came out at 71.0 mg and the “Uterine wt mg 100 uG cmpd” value was found to be 65.1 mg.

For `Cc1c(-c2ccc(O)cc2)n(Cc2ccc(OCCN3CCCCC3)cc2)c2ccc(F)cc12` [No. 94, 4-{5-Fluoro-3-methyl-1-[4-(2-piperidin-1-yl-ethoxy)-benzyl]-1H-indol-2-yl}-phenol], in assay [1], the “Uterine wt mg 100 uG cmpd + 1uG 17β-estradiol” value worked out at 93.7 mg and the “Uterine wt mg 100 uG cmpd” value amounted to 28.1 mg.

Regarding `CC/C(=C(\c1ccccc1)c1ccc(OCCN(C)C)cc1)c1ccccc1` [tamoxifen], in assay [1], the “Uterine wt mg 100 uG cmpd” value turned out to be 71.4 mg.

As for `CCCCN(C)CCOc1ccc(Cn2c(-c3ccc(O)cc3)c(C)c3cc(O)ccc32)cc1` [No. 105, 1-{4-[2-(Butyl-methyl-amino)-ethoxy]-benzyl}-2-(4-hydroxy-phenyl)-3-methyl-1H-indol-5-ol], on estrogen receptor, the “Infection Luciferase Activity, 1 uM + 17β estradiol” value is 5% and the “Infection Luciferase Activity, 1 uM” value is on record as 5%.

Regarding `Cc1c(-c2cccc(O)c2)n(Cc2ccc(OCCN3CCCCC3)cc2)c2ccc(O)cc12` [No. 127, 2-(3-Hydroxy-phenyl)-3-methyl-1-[4-(2-piperidin-1-yl-ethoxy)-benzyl]-1H-indol-5-ol], on estrogen receptor, the “Infection Luciferase Activity, 1 uM + 17β estradiol” value was −4% and the “Infection Luciferase Activity, 1 uM” value is recorded as −3%.

As for `Cc1c(-c2ccc(O)cc2)n(Cc2ccc(OCCN3CC4(C)CC3CC(C)(C)C4)cc2)c2ccc(O)cc12` (stereo not drawn) [No. 115, 2-(4-Hydroxy-phenyl)-3-methyl-1-{4-[2-(1,3,3-trimethyl-6-aza-bicyclo[3.2.1]oct-6-yl)-ethoxy]-benzyl}-1H-indol-5-ol], at estrogen receptor, the “Infection Luciferase Activity, 1 uM + 17β estradiol” value is 10% and the “Infection Luciferase Activity, 1 uM” value worked out at 11%.

With `Cc1c(-c2ccc(O)cc2)n(Cc2ccc(OCCN(C)C)cc2)c2ccc(O)cc12` [No. 100, 2-(4-Hydroxy-phenyl)-3-methyl-1-[4-(2-dimethyl-1-yl-ethoxy)-benzyl]-1H-indol-5-ol], in assay [1], the “Uterine wt mg 100 uG cmpd + 1uG 17β-estradiol” value is 68.7 mg and the “Uterine wt mg 100 uG cmpd” value was determined as 59.9 mg.

As for `CCCCN(CCCC)CCOc1ccc(Cn2c(-c3ccc(O)cc3)c(C)c3cc(O)ccc32)cc1` [No. 103, 1-[4-(2-Dibutylamino-ethoxy)-benzyl]-2-(4-hydroxy-phenyl)-3-methyl-1H-indol-5-ol], at estrogen receptor, the “Infection Luciferase Activity, 1 uM + 17β estradiol” value was 10% and the “Infection Luciferase Activity, 1 uM” value is recorded as 13%.

In the case of `Cc1c(-c2ccc(O)cc2)n(Cc2ccc(OCCN3CCCCC3)cc2)c2ccc(O)cc12` [No. 97, 2-(4-Hydroxy-phenyl)-3-methyl-1-[4-(2-piperidin-1-yl-ethoxy)-benzyl]-1H-indol-5-ol], in assay [1], the “Uterine wt mg 100 uG cmpd + 1uG 17β-estradiol” value is listed as 24.3 mg and the “Uterine wt mg 100 uG cmpd” value was 27.4 mg.

Regarding `Cc1c(-c2ccc(O)cc2)n(Cc2ccc(OCCN3CCC(O)CC3)cc2)c2ccc(O)cc12` [No. 113, 2-(4-Hydroxy-phenyl)-1-{4-[2-(4-hydroxy-piperidin-1-yl)-ethoxy]-benzyl}-3-methyl-1H-indol-5-ol], at estrogen receptor, the “Infection Luciferase Activity, 1 uM + 17β estradiol” value was 16% and the “Infection Luciferase Activity, 1 uM” value was determined as 14%.

As to `Cc1c(-c2ccc(O)cc2)n(Cc2ccc(OCCCN3CCCCC3)cc2)c2ccc(O)cc12` [No. 166, 2-(4-Hydroxy-phenyl)-3-methyl-1-{4-[3-(piperidin-1-yl)-propoxy]-benzyl}-1H-indol-5-ol], at estrogen receptor, the “Infection Luciferase Activity, 1 uM + 17β estradiol” value came out at 23% and the “Infection Luciferase Activity, 1 uM” value is 25%.

Consider `CCc1c(-c2ccc(O)cc2)n(Cc2ccc(OCCN3CCCCC3)cc2)c2ccc(O)cc12` [No. 137, 2-(4-Hydroxy-phenyl)-3-ethyl-1-[4-(2-piperidin-1-yl-ethoxy)-benzyl]-1H-indol-5-ol], for which, on estrogen receptor, the “Infection Luciferase Activity, 1 uM + 17β estradiol” value is listed as 8% and the “Infection Luciferase Activity, 1 uM” value is listed as 6%.

For `Cc1c(-c2ccc(O)cc2)n(Cc2ccc(OCCN3CCC(C)CC3)cc2)c2ccc(O)cc12` [No. 110, 2-(4-Hydroxy-phenyl)-3-methyl-1-{4-[2-(4-methyl-piperidin-1-yl)-ethoxy]-benzyl}-1H-indol-5-ol], at estrogen receptor, the “Infection Luciferase Activity, 1 uM + 17β estradiol” value is listed as 10% and the “Infection Luciferase Activity, 1 uM” value is reported as 8%.

As to `Cc1c(-c2ccc(O)cc2)n(Cc2ccc(OCCN3CCCCC3C)cc2)c2ccc(O)cc12` (stereo not drawn) [No. 108, 2-(4-Hydroxy-phenyl)-3-methyl-1-{4-[2-(2-methyl-piperidin-1-yl)-ethoxy]-benzyl}-1H-indol-5-ol], at estrogen receptor, the “Infection Luciferase Activity, 1 uM + 17β estradiol” value is 10% and the “Infection Luciferase Activity, 1 uM” value was found to be 11%.

On to `Oc1ccc(-c2c(Cl)c3cc(O)ccc3n2Cc2ccc(OCCN3CCCC3)cc2)cc1` [No. 133, 3-Chloro-2-(4-hydroxy-phenyl)-1-[4-(2-pyrrolidin-1-yl-ethoxy)-benzyl]-1H-indol-5-ol], for which, on estrogen receptor, the “Infection Luciferase Activity, 1 uM + 17β estradiol” value stood at 9% and the “Infection Luciferase Activity, 1 uM” value came to 7%.

For the compound `Cc1c(-c2ccc(O)cc2)n(Cc2ccc(OCCN3CCCC(C)C3)cc2)c2ccc(O)cc12` (stereo not drawn) [No. 109, 2-(4-Hydroxy-phenyl)-3-methyl-1-{4-[2-(3-methyl-piperidin-1-yl)-ethoxy]-benzyl}-1H-indol-5-ol], at estrogen receptor, the “Infection Luciferase Activity, 1 uM + 17β estradiol” value is 5% and the “Infection Luciferase Activity, 1 uM” value is reported as 6%.

Take `Cc1c(-c2ccc(O)cc2)n(Cc2ccc(OCCN3C[C@@H]4CC[C@H]3C4)cc2)c2ccc(O)cc12` [No. 114, (1S,4R)-1-{4-[2-(2-Aza-bicyclo[2.2.1]hept-2-yl)-ethoxy]-benzyl}-2-(4-hydroxy-phenyl)-3-methyl-1H-indol-5-ol]: on estrogen receptor, the “Infection Luciferase Activity, 1 uM + 17β estradiol” value is listed as −1% and the “Infection Luciferase Activity, 1 uM” value is listed as 1%.

Take `Cc1c(-c2ccccc2)n(Cc2ccc(OCCN3CCCCCC3)cc2)c2ccc(O)cc12` [No. 95, 1-[4-(2-Azepan-1-yl-ethoxy)-benzyl]-3-methyl-2-phenyl-1H-indol-5-ol]: on estrogen receptor, the “Infection Luciferase Activity, 1 uM + 17β estradiol” value was −4% and the “Infection Luciferase Activity, 1 uM” value is −4%.

As for `Cc1c(-c2ccc(O)cc2)n(Cc2ccc(OCCN3CCCC3)cc2)c2ccc(O)cc12` [No. 96, 2-(4-Hydroxy-phenyl)-3-methyl-1-[4-(2-pyrollidin-1-yl-ethoxy)-benzyl]-1H-indol-5-ol], at estrogen receptor, the “Infection Luciferase Activity, 1 uM + 17β estradiol” value worked out at 8% and the “Infection Luciferase Activity, 1 uM” value stood at 12%.

For the compound `CCCN(CCC)CCOc1ccc(Cn2c(-c3ccc(O)cc3)c(C)c3cc(O)ccc32)cc1` [No. 102, 1-[4-(2-Dipropylamino-ethoxy)-benzyl]-2-(4-hydroxy-phenyl)-3-methyl-1H-indol-5-ol], on estrogen receptor, the “Infection Luciferase Activity, 1 uM + 17β estradiol” value is given as 10% and the “Infection Luciferase Activity, 1 uM” value was 9%.

Take `Cc1c(-c2ccc(O)cc2)n(Cc2ccc(OCCN(C(C)C)C(C)C)cc2)c2ccc(O)cc12` [No. 104, 1-[4-(2-Diisopropylamino-ethoxy)-benzyl]-2-(4-hydroxy-phenyl)-3-methyl-1H-indol-5-ol]: at estrogen receptor, the “Infection Luciferase Activity, 1 uM + 17β estradiol” value is given as 7% and the “Infection Luciferase Activity, 1 uM” value was 7%.

Take `Cc1c(-c2ccc(O)cc2)n(Cc2ccc(OCCN3CCCC(C)(C)C3)cc2)c2ccc(O)cc12` [No. 111, 1-{4-[2-(3,3-Dimethyl-piperidin-1-yl)-ethoxy]-benzyl}2-(4-hydroxy-phenyl)-3-methyl-1H-indol-5-ol]: on estrogen receptor, the “Infection Luciferase Activity, 1 uM + 17β estradiol” value came out at 23% and the “Infection Luciferase Activity, 1 uM” value came to 25%.

Regarding `Cc1c(-c2ccccc2)n(Cc2ccc(OCCN3CCCCC3)cc2)c2ccc(O)cc12` [No. 87, 3-Methyl-2-phenyl-1-[4-(2-piperidine-1-yl-ethoxy)-benzyl]-1H-indol-5-ol], on estrogen receptor, the “Infection Luciferase Activity, 1 uM + 17β estradiol” value worked out at 0% and the “Infection Luciferase Activity, 1 uM” value came out at 0%.
